#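 A five-concentration, 48-hour dose response in 96-well plates underlies each endpoint, interpolated linearly between surrounding concentrations. Here, GI50 denotes the concentration required for 50% inhibition of growth. At the TGI there is no net growth.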
# Columns and labels:
# Test in all cases: NCI tumour cell line growth inhibition, 48 h
# SN12C renal = test system: SN12C renal
# T-47D breast = test system: T-47D breast
# SK-MEL-2 melanoma = test system: SK-MEL-2 melanoma
# HS 578T breast = test system: HS 578T breast
# TK-10 renal = test system: TK-10 renal
# SNB-19 CNS = test system: SNB-19 CNS
# NCI-H226 lung = test system: NCI-H226 lung
# UACC-62 melanoma = test system: UACC-62 melanoma
# HOP-62 NSCLC = test system: HOP-62 NSCLC
# HCT-116 colon = test system: HCT-116 colon
# 786-0 renal = test system: 786-0 renal
# KM12 colon = test system: KM12 colon
# K-562 leukemia = test system: K-562 leukemia
# M14 melanoma = test system: M14 melanoma
# A498 renal = test system: A498 renal
# SF-268 CNS = test system: SF-268 CNS
# DU-145 prostate = test system: DU-145 prostate
# NCI/ADR-RES ovarian = test system: NCI/ADR-RES ovarian
# CAKI-1 renal = test system: CAKI-1 renal
# CCRF-CEM leukemia = test system: CCRF-CEM leukemia
# LOX IMVI melanoma = test system: LOX IMVI melanoma
# OVCAR-5 ovarian = test system: OVCAR-5 ovarian
# HL-60(TB) leukemia = test system: HL-60(TB) leukemia
# SK-MEL-28 melanoma = test system: SK-MEL-28 melanoma
# EKVX NSCLC = test system: EKVX NSCLC
# MOLT-4 leukemia = test system: MOLT-4 leukemia
# BT-549 breast = test system: BT-549 breast
# COLO 205 colon = test system: COLO 205 colon
# SF-295 CNS = test system: SF-295 CNS
# UACC-257 melanoma = test system: UACC-257 melanoma
# UO-31 renal = test system: UO-31 renal
# HOP-92 NSCLC = test system: HOP-92 NSCLC
# HCT-15 colon = test system: HCT-15 colon
# OVCAR-4 ovarian = test system: OVCAR-4 ovarian
# HT29 colon = test system: HT29 colon
# MALME-3M melanoma = test system: MALME-3M melanoma
# MCF7 breast = test system: MCF7 breast
# NCI-H522 lung = test system: NCI-H522 lung
# SNB-75 CNS = test system: SNB-75 CNS
# OVCAR-8 ovarian = test system: OVCAR-8 ovarian
# RPMI-8226 leukemia = test system: RPMI-8226 leukemia
# A549 NSCLC = test system: A549 NSCLC
# SK-MEL-5 melanoma = test system: SK-MEL-5 melanoma
# NCI-H460 lung = test system: NCI-H460 lung
# MDA-MB-435 = test system: MDA-MB-435
# OVCAR-3 ovarian = test system: OVCAR-3 ovarian
# MDA-MB-231 breast = test system: MDA-MB-231 breast
# SR leukemia = test system: SR leukemia
# ACHN renal = test system: ACHN renal
# SF-539 CNS = test system: SF-539 CNS
# IGROV1 ovarian = test system: IGROV1 ovarian
# PC-3 prostate = test system: PC-3 prostate
# SK-OV-3 ovarian = test system: SK-OV-3 ovarian
# NCI-H23 lung = test system: NCI-H23 lung
# U251 CNS = test system: U251 CNS
# RXF 393 renal = test system: RXF 393 renal
# SW-620 colon = test system: SW-620 colon
smiles,measurement,setting,value
COc1cc2c(Nc3ccc(-c4ccc(N)cc4)cc3)ncnc2c(OC)c1OC,GI50,SN12C renal,11.2 µM
same,TGI,SN12C renal,> 100 µM
same,GI50,T-47D breast,5.13 µM
same,TGI,T-47D breast,86.7 µM
same,GI50,SK-MEL-2 melanoma,4.96 µM
same,TGI,SK-MEL-2 melanoma,> 78.1 µM
same,GI50,HS 578T breast,11.5 µM
same,TGI,HS 578T breast,> 68 µM
same,GI50,TK-10 renal,21 µM
same,TGI,TK-10 renal,> 100 µM
same,GI50,SNB-19 CNS,7.76 µM
same,TGI,SNB-19 CNS,> 100 µM
same,GI50,NCI-H226 lung,21 µM
same,TGI,NCI-H226 lung,> 100 µM
same,GI50,UACC-62 melanoma,0.522 µM
same,TGI,UACC-62 melanoma,> 35.1 µM
same,GI50,HOP-62 NSCLC,24.8 µM
same,TGI,HOP-62 NSCLC,> 100 µM
same,GI50,HCT-116 colon,3.79 µM
same,TGI,HCT-116 colon,55.3 µM
same,GI50,786-0 renal,3.72 µM
same,TGI,786-0 renal,> 100 µM
same,GI50,KM12 colon,0.615 µM
same,TGI,KM12 colon,41.6 µM
same,GI50,K-562 leukemia,0.521 µM
same,TGI,K-562 leukemia,> 100 µM
same,GI50,M14 melanoma,0.542 µM
same,TGI,M14 melanoma,> 67.1 µM
same,GI50,A498 renal,15.1 µM
same,TGI,A498 renal,56 µM
same,GI50,SF-268 CNS,19.1 µM
same,TGI,SF-268 CNS,> 100 µM
same,GI50,DU-145 prostate,18.4 µM
same,TGI,DU-145 prostate,> 100 µM
same,GI50,NCI/ADR-RES ovarian,4.54 µM
same,TGI,NCI/ADR-RES ovarian,> 100 µM
same,GI50,CAKI-1 renal,0.655 µM
same,TGI,CAKI-1 renal,> 56.5 µM
same,GI50,CCRF-CEM leukemia,6.09 µM
same,TGI,CCRF-CEM leukemia,> 100 µM
same,GI50,LOX IMVI melanoma,0.438 µM
same,TGI,LOX IMVI melanoma,> 100 µM
same,GI50,OVCAR-5 ovarian,6.29 µM
same,TGI,OVCAR-5 ovarian,> 100 µM
same,GI50,HL-60(TB) leukemia,2.54 µM
same,TGI,HL-60(TB) leukemia,20.4 µM
same,GI50,SK-MEL-28 melanoma,11.9 µM
same,TGI,SK-MEL-28 melanoma,> 100 µM
same,GI50,EKVX NSCLC,5.4 µM
same,TGI,EKVX NSCLC,> 100 µM
same,GI50,MOLT-4 leukemia,4.05 µM
same,TGI,MOLT-4 leukemia,> 100 µM
same,GI50,BT-549 breast,7.99 µM
same,TGI,BT-549 breast,55 µM
same,GI50,COLO 205 colon,2.6 µM
same,TGI,COLO 205 colon,7.94 µM
same,GI50,SF-295 CNS,1.5 µM
same,TGI,SF-295 CNS,7.52 µM
same,GI50,UACC-257 melanoma,4.58 µM
same,TGI,UACC-257 melanoma,> 100 µM
same,GI50,UO-31 renal,2.07 µM
same,TGI,UO-31 renal,> 76.5 µM
same,GI50,HOP-92 NSCLC,18.3 µM
same,TGI,HOP-92 NSCLC,> 100 µM
same,GI50,HCT-15 colon,0.607 µM
same,TGI,HCT-15 colon,> 85.7 µM
same,GI50,OVCAR-4 ovarian,6.01 µM
same,TGI,OVCAR-4 ovarian,> 100 µM
same,GI50,HT29 colon,8.02 µM
same,TGI,HT29 colon,> 81.7 µM
same,GI50,MALME-3M melanoma,22.4 µM
same,TGI,MALME-3M melanoma,> 92.2 µM
same,GI50,MCF7 breast,3.54 µM
same,TGI,MCF7 breast,> 100 µM
same,GI50,NCI-H522 lung,3.15 µM
same,TGI,NCI-H522 lung,> 80.9 µM
same,GI50,SNB-75 CNS,16.6 µM
same,TGI,SNB-75 CNS,64.9 µM
same,GI50,OVCAR-8 ovarian,5.46 µM
same,TGI,OVCAR-8 ovarian,56.9 µM
same,GI50,RPMI-8226 leukemia,3.78 µM
same,TGI,RPMI-8226 leukemia,41.4 µM
same,GI50,A549 NSCLC,2.68 µM
same,TGI,A549 NSCLC,> 100 µM
same,GI50,SK-MEL-5 melanoma,1.94 µM
same,TGI,SK-MEL-5 melanoma,5.3 µM
same,GI50,NCI-H460 lung,2.89 µM
same,TGI,NCI-H460 lung,> 66.4 µM
same,GI50,MDA-MB-435,0.752 µM
same,TGI,MDA-MB-435,47.1 µM
same,GI50,OVCAR-3 ovarian,6.43 µM
same,TGI,OVCAR-3 ovarian,> 59.3 µM
same,GI50,MDA-MB-231 breast,2.9 µM
same,TGI,MDA-MB-231 breast,> 100 µM
same,GI50,SR leukemia,5.5 µM
same,TGI,SR leukemia,84.9 µM
same,GI50,ACHN renal,1.76 µM
same,TGI,ACHN renal,> 100 µM
same,GI50,SF-539 CNS,2.42 µM
same,TGI,SF-539 CNS,> 28.7 µM
same,GI50,IGROV1 ovarian,12.6 µM
same,TGI,IGROV1 ovarian,> 100 µM
same,GI50,PC-3 prostate,5.46 µM
same,TGI,PC-3 prostate,> 89.1 µM
same,GI50,SK-OV-3 ovarian,46.5 µM
same,TGI,SK-OV-3 ovarian,> 100 µM
same,GI50,NCI-H23 lung,19.5 µM
same,TGI,NCI-H23 lung,> 100 µM
same,GI50,U251 CNS,7.93 µM
same,TGI,U251 CNS,> 100 µM
same,GI50,RXF 393 renal,24.9 µM
same,TGI,RXF 393 renal,> 95.9 µM
same,GI50,SW-620 colon,0.733 µM
same,TGI,SW-620 colon,> 100 µM
